Test results: publication PMC11984268 (BMC Cancer, 2025)
Like-named read-outs stand apart in the source and are kept apart here.

How the values were obtained:
[1] = Plasma pharmacokinetics by HPLC-MS/MS; type: in vivo, human; details: for concentration at 24 h: read-out: Cmin 24h
Experimental: Plasma samples were collected pre-dose and 1, 2, 4, 6, 8, 10 and 24 h after the dose on C1/D21. PK trough samples (pre-dose; 2 h post-dose) were obtained on day 21 of cycles 2, 4, 6, 8, 10 and 12.

pMEK1/2 = pMEK1/2 in paired skin biopsies, Western blotting/densitometry; type: in vivo, human; details: dose escalation, cohort 7, 12 and 13, C1D15
Experimental: (§1) All patients in the dose escalation phase consented to a fresh frozen punch skin biopsy during screening and on C1/D15 (± 7 days). Fresh frozen skin and tumour biopsies during screening and on C1/D15 (± 7 days) were also required for the first 13 patients in the dose expansion phase. PD markers of MEK1/2 inhibition (pMEK1/2; pERK1/2) in skin biopsies and MET inhibition (pSTAT3) in tumour biopsy were assessed by Western blotting (WB), as previously described. Densitometry on WB images was performed using ImageJ software.

[2] = in vivo; cited from earlier work
cMET = details: cited from earlier work
[3] = remark: listed apart in the source
Experimental: A rolling-six design was employed.
Safety assessments, ophthalmic/cardiac examinations were performed as previously described. […] Anti-tumour activity was conducted at baseline (within 28 days prior to C1/day 1 (D1)) and then every 2 cycles and evaluated by RECIST v1.1.
Safety and efficacy data were summarised using descriptive statistics. Evaluable patients for toxicity were those patients that received at least one dose of one or both drugs. Evaluable patients for MTD or dose escalation were those patients who completed C1 or withdrew early for experiencing a DLT. Response analyses (RECIST v1.1) were performed on an intention-to-treat basis, and any patient who received any dose of study treatment was evaluable for response. PFS was defined as the time between receiving the first dose of study medication to disease progression or death from any cause. OS was defined as the time between C1D1 to death from any cause. PFS and OS were estimated using the Kaplan–Meier method. Statistical significance was calculated from distinct technical replicates by Student’s t-test (2-tailed, 2 sample equal variance on unpaired data), in GraphPad Prism 8. Graphs were plotted as means with error bars represented as SD; statistical significance was denoted as follows: *** = p < 0.001, ** = p < 0.01, * = p < 0.05, ns = p > 0.05.

pSTAT3^Y705 = assay: pSTAT3 Y705 in paired tumour biopsies, Western blotting; type: in vivo, human; details: one patient with paired biopsy, dose expansion, C1D15
Experimental: as §1

pMET^Y1003 = assay: pMET Y1003 in paired tumour biopsies, Western blotting; type: in vivo, human; details: one patient with paired biopsy, dose expansion, C1D15
[4] = patients with advanced solid cancers; cited from earlier work
[5] = Cycle 1, Day 21, Cohort 7: binimetinib 30mg B.D 28d, crizotinib 200mg B.D, n = 7
[6] = Cycle 1, Day 21, Cohort 12: binimetinib 30mg B.D 21d, crizotinib 200mg B.D, n = 5
[7] = Cycle 1, Day 21, Cohort 13: binimetinib 30mg B.D 21d, crizotinib 250mg O.D, n = 6
[8] = Cycle 1, Day 21, Dose expansion phase: binimetinib 30mg B.D 21d, crizotinib 250mg O.D, n = 26
[9] = human, plasma, dose escalation phase, 3 cohorts, oral, read-out: time of peak plasma concentrations after dosing

## O=C(NOCCO)c1cc2[nH]cnc2c(F)c1Nc1ccc(Br)cc1F [AR0042603]
[1]; [5]
  AUC0-10h: 203 (112) ng*h/ml (SD)
  Cmax: 25.1 (15.1) ng/ml (SD)
  Cmin: 10.4 (2.66) ng/ml (SD)
  Tmax: 3.03 (1.97) h (SD)
[1]; [6]
  AUC0-10h: 183 (24.8) ng*h/ml (SD)
  Cmax: 29.5 (8.62) ng/ml (SD)
  Cmin: 10.2 (2.47) ng/ml (SD)
  Tmax: 1.75 (0.5) h (SD)
[1]; [7]
  AUC0-10h: 121 (28.9) ng*h/ml (SD)
  Cmax: 23.4 (8.04) ng/ml (SD)
  Cmin: 6.95 (1.6) ng/ml (SD)
  Tmax: 1.84 (1.16) h (SD)
[1]; [8]
  AUC0-10h: 194 (85.2) ng*h/ml (SD)
  Cmax: 22.7 (16.0) ng/ml (SD)
  Cmin: 12.1 (4.8) ng/ml (SD)
  Tmax: 3.15 (1.99) h (SD)

## Cn1cnc2c(F)c(Nc3ccc(Br)cc3F)c(C(=O)NOCCO)cc21 [binimetinib]
pMEK1/2
  pMEK1/2 (catalytically-inactive) in skin biopsies, post- vs pre-treatment: significant accumulation
Days 1–21 every 28 days, with crizotinib 250 mg O.D continuously
  MTD (binimetinib dose in the combination): 30 mg B.D
[1]; [5]
  AUC0-10h: 1604 (554) ng*h/ml (SD)
  Cmax: 265 (83.4) ng/ml (SD)
  Cmin: 77.1 (40.3) ng/ml (SD)
  Tmax: 2.26 (2.14) h (SD)
[1]; [6]
  AUC0-10h: 1780 (706) ng*h/ml (SD)
  Cmax: 386 (189) ng/ml (SD)
  Cmin: 85.8 (51.9) ng/ml (SD)
  Tmax: 1.75 (0.5) h (SD)
[1]; [7]
  AUC0-10h: 1402 (666) ng*h/ml (SD)
  Cmax: 320 (136) ng/ml (SD)
  Cmin: 64.0 (28.9) ng/ml (SD)
  Tmax: 1.51 (0.54) h (SD)
[1]; [8]
  AUC0-10h: 2129 (1152) ng*h/ml (SD)
  Cmax: 357 (171) ng/ml (SD)
  Cmin: 103 (58.5) ng/ml (SD)
  Tmax: 2.55 (1.5) h (SD)
[1]; [9]
  Tmax: 0.98 to 6 h
[2]
  RP2D: 45 mg B.D
  doses achieving plasma concentrations required to inhibit pERK1/2: ≥ 30 mg B.D

## C[C@@H](Oc1cc(-c2cnn(C3CCNCC3)c2)cnc1N)c1c(Cl)ccc(F)c1Cl [crizotinib]
cMET
  pre-clinically predicted effective concentration to inhibit cMET: 62 ng/mL
continuously, with binimetinib 30 mg B.D days 1–21 every 28 days
  MTD (crizotinib dose in the combination): 250 mg O.D
[3]; dose escalation phase, of 210 DR-AE
  DR-AE determined to be related to the drug: 164
[3]; dose expansion phase, of 297 DR-AE
  DR-AE determined to be related to the drug: 244
pSTAT3^Y705
  pSTAT3 Y705 levels in tumour during treatment: decreases
pMET^Y1003
  pMET Y1003 levels in tumour during treatment: increased
[1]; [5]
  AUC0-10h: 2481 (980) ng*h/ml (SD)
  Cmin: 205 (78.0) ng/ml (SD)
[1]; [6]
  AUC0-10h: 2119 (1341) ng*h/ml (SD)
  Cmin: 181 (136) ng/ml (SD)
[1]; [7]
  AUC0-10h: 1467 (410) ng*h/ml (SD)
  AUC0-24h: 2529 (380) ng*h/ml (SD)
  Cmin: 114 (43.1) ng/ml (SD)
[1]; [8]
  AUC0-10h: 1647 (907) ng*h/ml (SD)
  AUC0-24h: 3479 (2083) ng*h/ml (SD)
  Cmin: 149 (85.3) ng/ml (SD)
[1]; cohort 13, crizotinib 250 mg O.D
  median trough plasma concentrations: > 62 ng/mL
[1]; human, plasma, oral, Cycle 1, Day 21, Cohort 13: binimetinib 30mg B.D 21d, crizotinib 250mg O.D, n = 6
  concentration at 24 h: 72.6 ng/mL
[1]; human, plasma, oral, Cycle 1, Day 21, Dose expansion phase: binimetinib 30mg B.D 21d, crizotinib 250mg O.D, n = 26
  concentration at 24 h: 109 ng/mL
[1]; [9]
  Tmax: 0.97 to 6 h
[4]
  maximum-tolerated dose (MTD) of crizotinib with PD- 0325901: 200 mg B.D
